The source of these data is ChEMBL document CHEMBL1146414, “New Agelasine Compound from the Marine Sponge Agelas mauritiana as an Antifouling Substance against Macroalgae” (J Nat Prod, 1997).

The subject of data set [1] is Ulva. Put plainly: Antifouling activity against Ulva conglobata spores assessed as germination and attachment rate at 2.5 to 10.0 ppm. The format is functional, organism-based.
The subject of data set [2] is Ulva. In words: Toxicity against Ulva conglobata spores at 50 ppm. The format is organism-based. Particulars: in vivo.
The test system of data set [3] is Anagnostidinema amphibium. Put plainly: Antimicroalgal activity against Oscillatoria amphibia at 1.0 to 2.5 ppm. The format is functional, organism-based.
The test system of data set [4] is Skeletonema costatum. In words: Antimicroalgal activity against Skeletonema costatum at 1.0 to 2.5 ppm. The class given is functional, organism-based.
Data set [5] has as its system Prorocentrum micans. Put plainly: Antimicroalgal activity against Prorocentrum micans at 1.0 to 2.5 ppm. The format is functional, organism-based.
Data set [6] relates to Brachiomonas submarina. In words: Antimicroalgal activity against Brachiomonas submarina at 1.0 to 2.5 ppm. The class given is functional, organism-based.
The subject of data set [7] is Staphylococcus aureus. In words: Antibacterial activity against Staphylococcus aureus. The format is functional, organism-based.
In data set [8] the test system is Salinivibrio costicola. In words: Antibacterial activity against sVibrio costicola. The class given is functional, organism-based.
The subject of data set [9] is Escherichia coli. In words: Antibacterial activity against Escherichia coli. The format is functional, organism-based.
Data set [10] has as its system Bacillus subtilis. In words: Antibacterial activity against Bacillus subtilis. The format is functional, organism-based.

Active and inactive are the calls of the source. The rule behind the calls is not given here.

Consider `C/C(=C\C[n+]1cn(C)c2ncnc(N)c21)CC[C@@]1(C)C2=CCCC(C)(C)[C@@H]2CC[C@@H]1C.[Cl-]`, for which the result in data set [1], in [3], in [4], in data set [5] and in data set [6] was Active. The Activity entry in [2] was “Toxic”. For the same compound, the result in data set [7], in data set [8], in data set [9] and in data set [10] was inactive.
